ChEMBL document CHEMBL2034849, “Discovery of a Potent Dihydrooxadiazole Series of Non-ATP-Competitive MK2 (MAPKAPK2) Inhibitors” (ACS Med Chem Lett, 2012)
In brackets after ≈: the same amount, converted by molar mass. Activity calls are given as the source filed them. The calls are words filed in the database; no cut-off is given here.

Tests used:
[1] = molecular target: T1, MAP kinase-activated protein kinase 2 (Homo sapiens, UniProt P49137); experiment: Inhibition of MK2 using 5TAMRA-KKLNRTLSVA-COOH as substrate incubated for 30 mins prior to substrate addition measured after 30 mins by immobilized metal ion affinity-based fluorescence polarization assay in presence of 100 uM ATP
Target sequence in this assay (P49137 whole entry): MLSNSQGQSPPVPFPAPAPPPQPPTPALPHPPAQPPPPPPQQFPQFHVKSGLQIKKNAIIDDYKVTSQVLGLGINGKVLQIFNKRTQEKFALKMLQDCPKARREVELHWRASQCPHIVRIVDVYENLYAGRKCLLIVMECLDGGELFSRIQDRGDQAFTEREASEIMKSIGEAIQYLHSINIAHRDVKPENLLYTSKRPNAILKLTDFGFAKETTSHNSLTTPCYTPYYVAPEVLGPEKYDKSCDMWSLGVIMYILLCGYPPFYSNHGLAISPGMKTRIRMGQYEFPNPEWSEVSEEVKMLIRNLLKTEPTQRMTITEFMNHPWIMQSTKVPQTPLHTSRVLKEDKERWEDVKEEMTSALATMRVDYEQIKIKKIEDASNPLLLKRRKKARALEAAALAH

[2] = molecular target: T1, MAP kinase-activated protein kinase 2; experiment: Inhibition of MK2 in human THP1 cells assessed as inhibition of LPS-induced HSP27 Ser78 phosphorylation incubated for 60 mins prior to LPS-induction measured after 60 mins; assay type: cell-based, THP-1
Target sequence in this assay (P49137 whole entry): as above

[3] = molecular target: T1, MAP kinase-activated protein kinase 2; experiment: Non-competitive inhibition of MK2 using 5TAMRA-KKLNRTLSVA-COOH as substrate by immobilized metal ion affinity-based fluorescence polarization assay in presence of 1 to 100 uM ATP
Target sequence in this assay (P49137 whole entry, looked up): as the sequence (P49137 whole entry) above

[4] = Plasma protein binding in human; assay type: ADME, cell-free; settings: read-out: PPB (converted)
[5] = Solubility of the compound in 2% DMSO at pH 7.4; assay type: physicochemical
[6] = Solubility of the compound in 10 mM sodium phosphate buffer at pH 7.4; assay type: physicochemical
Caco-2 = experiment: Permeability across human Caco2 cells; assay type: ADME, cell-based
[7] = Clearance in rat hepatocyte assessed per million cells; assay type: ADME, cell-based; settings: hepatocytes, read-out: CLH
[8] = Plasma protein binding in rat; assay type: ADME, cell-free; settings: read-out: PPB (converted)

Compound | IC50 [1] | also measured
Fc1cc(F)cc(C2ON=C(c3ccc(-c4ccc(Cl)cc4)o3)N2c2ccc(N3CCNCC3)cc2)c1 (stereo not drawn) | 0.19 µM | –
Clc1cccc(-c2ccc(C3=NOC(c4ccccc4-c4cncnc4)N3c3ccc(N4CCNCC4)cc3)o2)c1 (stereo not drawn) | 1.3 µM | –
N#Cc1ccc(-c2ccc(C3=NOC(c4ccccc4-c4cncnc4)N3c3ccc(N4CCNCC4)cc3)o2)cc1 (stereo in doubt; 33) | 0.008 µM | EC50 [2]: 1.2 µM
N#Cc1ccc(-c2ccc(C3=NOC(c4ccccc4-c4cncnc4)N3c3ccc(N4CCNCC4)cc3)o2)cc1 (stereo in doubt; 38) [listing 1 of 2 here] | – | inhibition [3]: Active
COc1ccc(-c2ccc(C3=NOC(c4ccccc4-c4cncnc4)N3c3ccc(N4CCNCC4)cc3)o2)cc1 (stereo not drawn) | 0.31 µM | –
c1ccc(C2ON=C(c3ccc(-c4ccncc4)o3)N2c2ccc(N3CCNCC3)cc2)c(-c2cncnc2)c1 (stereo not drawn) | 0.79 µM | –
FC1(F)CCN(c2ccc(N3C(c4ccc(-c5ccc(Cl)cc5)o4)=NOC3c3ccncc3)cc2)CC1 (stereo not drawn) | > 10 µM | –
Clc1ccc(-c2ccc(-c3cc(-c4ccc(N5CCNCC5)cc4)on3)o2)cc1 | > 10 µM | –
Clc1ccc(-c2ccc(C3=NOC(c4ccccc4-c4cncnc4)N3c3ccc(N4CCNCC4)cc3)o2)cc1Cl (stereo not drawn) | 0.97 µM | –
N#Cc1ccc(-c2ccc(C3=NOC(c4ccccc4-c4cncnc4)N3c3ccc(N4CCNCC4)cc3)o2)cc1 (stereo in doubt; 38) [listing 2 of 2 here] | 0.006 µM | fraction unbound [4]: 0.035; EC50 [2]: 0.17 µM; solubility [5]: 20 µM (≈ 11.1 µg/mL); solubility [6]: 20 µM (≈ 11.1 µg/mL); permeability (Caco-2): permeable; hepatocyte CLint [7]: 35 µL/min/1e6 cells; fraction unbound [8]: 0.031
Clc1ccc(-c2ccc(C3=NOC(c4ccccn4)N3c3ccc(N4CCNCC4)cc3)o2)cc1 (stereo not drawn) | 0.03 µM | EC50 [2]: 3 µM
Clc1ccc(-c2ccc(-c3nocc3-c3ccc(N4CCNCC4)cc3)o2)cc1 | 3.4 µM | –
O=c1onc(-c2ccc(-c3ccc(Cl)cc3)o2)n1-c1ccc(N2CCNCC2)cc1 | 6.2 µM | –
Fc1ccc(C2ON=C(c3ccc(-c4ccc(Cl)cc4)o3)N2c2ccc(N3CCNCC3)cc2)nc1 (stereo not drawn) | 0.06 µM | EC50 [2]: 3.7 µM
Fc1cc(-c2ccc(C3=NOC(c4ccccc4-c4cncnc4)N3c3ccc(N4CCNCC4)cc3)o2)ccc1Cl (stereo not drawn) | 0.22 µM | –
Clc1ccc(-c2ccc(C3=NOC(c4cccnc4)N3c3ccc(N4CCNCC4)cc3)o2)cc1 (stereo not drawn) | 0.05 µM | –

Further lines, with some results ahead:

IC50 [1] | Compound | also measured
0.07 µM | Clc1ccc(-c2ccc(C3=NOC(c4cnc[nH]4)N3c3ccc(N4CCNCC4)cc3)o2)cc1 (stereo not drawn) | EC50 [2]: 2.4 µM
1.4 µM | Clc1ccc(-c2ccc(C3=NOCCCN3c3ccc(N4CCNCC4)cc3)o2)cc1 | –
0.06 µM | Clc1ccc(-c2ccc(C3=NOC(c4ccncn4)N3c3ccc(N4CCNCC4)cc3)o2)cc1 (stereo not drawn) | –
0.03 µM | Clc1ccc(-c2ccc(C3=NOC(c4ccncc4)N3c3ccc(N4CCNCC4)cc3)o2)cc1 (stereo not drawn) | EC50 [2]: 2.7 µM
0.05 µM | Fc1ccc(-c2ccc(C3=NOC(c4ccccc4-c4cncnc4)N3c3ccc(N4CCNCC4)cc3)o2)cc1 (stereo not drawn) | EC50 [2]: 0.76 µM
> 10 µM | Clc1ccc(-c2ccc(C3=NOC(c4ccncc4)N3Cc3ccc(N4CCNCC4)cc3)o2)cc1 (stereo not drawn) | –
0.34 µM | N#Cc1ccc(-c2ccc(C3=NOC(c4ccccc4-c4cncnc4)N3c3ccc(N4CCNCC4)cc3)o2)cc1 (single isomer, unassigned; enantiomer 2) | –
5.3 µM | N#Cc1cccc(-c2ccc(C3=NOC(c4ccccc4-c4cncnc4)N3c3ccc(N4CCNCC4)cc3)o2)c1 (stereo not drawn) | –
0.11 µM | N#Cc1ccc(-c2ccc(C3=NOCCN3c3ccc(N4CCNCC4)cc3)o2)cc1 | –
0.19 µM | Clc1ccc(-c2ccc(C3=NOC(c4ccncc4)N3c3ccc(C4CCNCC4)cc3)o2)cc1 (stereo not drawn) | –
3.7 µM | Clc1ccc(-c2ccc(C3ON=C(c4ccccc4)N3c3ccc(N4CCNCC4)cc3)o2)cc1 (stereo not drawn) | –
0.16 µM | Fc1ccc(C2ON=C(c3ccc(-c4ccc(Cl)cc4)o3)N2c2ccc(N3CCNCC3)cc2)cc1 (stereo not drawn) | –
> 10 µM | CNC(=O)c1ccc(-c2ccc(C3=NOC(c4ccccc4-c4cncnc4)N3c3ccc(N4CCNCC4)cc3)o2)cc1 (stereo not drawn) | –
0.1 µM | Fc1ccc(C2ON=C(c3ccc(-c4ccc(Cl)cc4)o3)N2c2ccc(N3CCNCC3)cc2)c(F)c1 (stereo not drawn) | –
